Here are results for 16 molecules from ChEMBL document CHEMBL1201862, “PubChem BioAssay data set” (2004).

A short description of data set [1]: reduced cellular PGC1a acetyl-lysine signal – cell-based, cherry-picked samples, dose response (AID 720514).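 Note: potency may reflect raised or lowered acetylation signal.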 The format is functional.
Data set [2] concerns the target T1, Polyadenylate-binding protein 1 (Homo sapiens, UniProt P11940). As to the kind of experiment: MLLE binding blockers, Cy5 peptide tracer – biochemical, fluorescence polarization, Cy5-PAM2 peptide, secondary, miRNA deadenylation inhibitor project, dose response (AID 602260). The format is functional. The conditions noted are these: read-out: IC50_Mean. For orientation: In fluorescence polarisation assays a small probe gives low polarisation when free and higher when bound to something large.

For data set [3], the target named is T1, Polyadenylate-binding protein 1. As to the kind of experiment: MLLE domain peptide-binding blockers, IC50 – biochemical, fluorescence polarization, FITC-PAM2 peptide, dose response (AID 602259). The format is functional. Particulars: read-out: IC50_Mean.
Data set [4] has as its target T2, Long-chain-fatty-acid--AMP ligase FadD28 (Mycobacterium tuberculosis, UniProt P9WQ59).
T2 sequence (P9WQ59 whole entry): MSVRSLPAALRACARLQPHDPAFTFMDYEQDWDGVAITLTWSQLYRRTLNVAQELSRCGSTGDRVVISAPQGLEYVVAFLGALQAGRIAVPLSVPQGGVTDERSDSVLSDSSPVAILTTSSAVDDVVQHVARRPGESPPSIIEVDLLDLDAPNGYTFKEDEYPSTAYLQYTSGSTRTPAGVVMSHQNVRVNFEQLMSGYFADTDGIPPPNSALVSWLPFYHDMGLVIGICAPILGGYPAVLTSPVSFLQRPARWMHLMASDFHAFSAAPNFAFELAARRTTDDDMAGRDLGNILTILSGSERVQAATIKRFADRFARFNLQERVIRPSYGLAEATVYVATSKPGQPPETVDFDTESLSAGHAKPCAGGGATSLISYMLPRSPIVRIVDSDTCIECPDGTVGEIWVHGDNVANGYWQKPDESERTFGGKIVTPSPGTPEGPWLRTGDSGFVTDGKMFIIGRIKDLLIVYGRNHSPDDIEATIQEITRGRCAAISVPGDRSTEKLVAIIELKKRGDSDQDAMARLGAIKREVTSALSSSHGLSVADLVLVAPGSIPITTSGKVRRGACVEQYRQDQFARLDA
As to the kind of experiment: Fluorescence polarization aasay to screen for inhibitors that compete for the binding of FadD28 to a bisubstrate Measured in Biochemical System Using Plate Reader - 2147-01_Inhibitor_Dose_CherryPick_Activity. The data set is classed as functional, Mycobacterium tuberculosis H37Rv.

Data set [5] deals with Glucose-6-phosphate 1-dehydrogenase (Homo sapiens, UniProt P11413). As to the kind of experiment: inhibition of Homo sapiens G6PD, dose series – biochemical, fluorescence, selectivity assay for P. falciparum G6PD inhibitor project, dose response (AID 504792). The format is functional.
Data set [6] in a line: cells. The format is functional, cell-based.
A short description of data set [7]: luciferase reporter signal suppression in cells – H4 neuroglioma cells, luminescence, dose response (AID 1990). The data set is classed as functional, cell-based. In general terms: In a reporter assay the amount or activity of a reporter protein is the signal.
Data set [8] is described as follows: cells. The data set is classed as functional, cell-based. The source holds these as a separate data set.
Data set [9] is described as follows: alpha-synuclein stem-loop luciferase translation blockers – H4 neuroglioma cells, luminescence, confirmation (AID 1988). The format is functional, cell-based.
A short description of data set [10]: Luminescence Cell-Based Dose Response HTS to Identify Inhibitors of 5'UTR Stem-Loop Driven Prion Protein mRNA Translation in H4 Neuroglioblastoma Cells. [Related pubchem assays: 1827 (Project Summary), 1813 (Primary HTS)]. The data set is classed as functional.
Data set [11] in a line: THP-1 cell cytotoxicity, dose response, cytotoxicity control for non-replicating M. tuberculosis project (AID 489025). The format is functional.
The next data set concerns INS1. As to the kind of experiment: INS-1E survival protection against cytokine death – cell-based, luminescence, retest, dose response (AID 449756).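 Note: cell death triggered by IL-1 beta plus TNF-alpha plus IFN-gamma mixture; protective hits raise ATP signal compared with cytokine alone wells.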 The format is functional. Particulars: Rattus norvegicus.
Data set [12] in a line: NIH3T3 cell viability loss – ATP luminescence, mouse fibroblasts, counter-screen, dose response (AID 2010).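 Note: cells exposed to compound for about 90 hours before reading.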 The data set is classed as functional, cell-based. On the technique in general: A counterscreen serves to expose hits that act by an unwanted route or on another target.
The nature of data set [13]: cells. The data set is classed as functional.
The nature of data set [14]: Trypanosoma cruzi growth suppression in host cells – NIH3T3 host cells, beta-gal luminescence, confirmation (AID 2044).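 Note: intracellular parasites grown in NIH/3T3 mouse fibroblasts as host cells; luminescent beta-galactosidase reporter signal from transgenic T. cruzi replicating inside host cells; inhibitors lower the luminescence signal.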 The format is functional, cell-based.
Data set [15] can be described thus: fluconazole-exposed Candida albicans growth modulators – fluorescence, retest, confirmation (AID 2467). The data set is classed as functional, cell-based.
Data set [16] is described as follows: NIH-3T3 fibroblast cytotoxicity, dose response, cytotoxicity control, cell-based, fluorescence, Alamar Blue, secondary assay (AID 2327).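 Note: NIH-3T3 mouse fibroblasts cultured with fluconazole at 8 µg/mL.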 The format is functional.
Data set [17] can be described thus: Luminescence Cell-Based Dose Confirmation HTS to Identify Inhibitors of Platelet Dense Granule Release. [Related pubchem assays: 1663 (Primary HTS), 1678 (Summary of Project)]. The data set is classed as functional.
Data set [18] can be described thus: blockers of bursicon-stimulated LGR2 cAMP reporter – cell-based, HEK293, CRE-luciferase reporter, cherry pick, set 2, dose response (AID 743343).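 Note: transfected cells were stimulated with diluted bursicon conditioned medium after compound addition.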 The data set is classed as functional.
Data set [19] is described as follows: A549 cell cytotoxicity, dose response, cytotoxicity control, plate reader, cherry-pick, antagonist series (AID 743412). The data set is classed as functional, cell-based.
The target in data set [20] is Luciferin 4-monooxygenase (Photinus pyralis, UniProt P08659). As to the kind of experiment: inhibition of purified Photinus pyralis luciferase – biochemical, luminescence, dose response (AID 1891).
Data set [21] in a line: viability loss in HEK293 cells – cell-based, plate reader, cherry-picked samples, cytotoxicity control, dose response (AID 743446). The format is functional.
Data set [22] can be described thus: blockade of melanocortin 4 receptor signaling – cell-based, plate reader, cherry pick, counter-screen for LGR2 antagonist project, dose response (AID 743444).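 Note: transfected HEK 293 cells stimulated with alpha-MSH peptide; potency of inhibitors of the alpha-MSH evoked signal.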 The format is functional.
Data set [23] addresses T3, Calpain-2 catalytic subunit (Sus scrofa, UniProt P43367).
T3 sequence (P43367 whole entry): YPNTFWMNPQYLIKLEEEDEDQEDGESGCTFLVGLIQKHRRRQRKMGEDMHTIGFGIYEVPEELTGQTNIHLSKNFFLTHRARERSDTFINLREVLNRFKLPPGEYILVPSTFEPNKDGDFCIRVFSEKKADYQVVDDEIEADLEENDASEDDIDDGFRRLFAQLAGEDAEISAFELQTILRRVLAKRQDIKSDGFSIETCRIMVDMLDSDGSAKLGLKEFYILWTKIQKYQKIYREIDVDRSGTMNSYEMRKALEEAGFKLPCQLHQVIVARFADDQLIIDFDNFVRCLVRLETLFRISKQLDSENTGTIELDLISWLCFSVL
As to the kind of experiment: m-calpain protease blockers, concentration series – biochemical, fluorogenic peptide substrate, dose response (AID 1420). The format is functional.

The target in a further data set is Cytochrome P450 2C9 (Homo sapiens, UniProt P11712).
For the next data set, the target named is Cytochrome P450 3A4 (Homo sapiens, UniProt P08684).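 Note: CYP3A4 tested as one member of a cytochrome P450 panel screen.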
The target in another data set is Cytochrome P450 2D6 (Homo sapiens, UniProt P10635).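 Note: CYP2D6 member of a cytochrome P450 panel assay.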
In another data set the target is T4, Cytochrome P450 1A2 (Homo sapiens, UniProt P05177).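 Note: PubChem cytochrome P450 panel assay, CYP1A2 panel member.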
T4 sequence (P05177 whole entry): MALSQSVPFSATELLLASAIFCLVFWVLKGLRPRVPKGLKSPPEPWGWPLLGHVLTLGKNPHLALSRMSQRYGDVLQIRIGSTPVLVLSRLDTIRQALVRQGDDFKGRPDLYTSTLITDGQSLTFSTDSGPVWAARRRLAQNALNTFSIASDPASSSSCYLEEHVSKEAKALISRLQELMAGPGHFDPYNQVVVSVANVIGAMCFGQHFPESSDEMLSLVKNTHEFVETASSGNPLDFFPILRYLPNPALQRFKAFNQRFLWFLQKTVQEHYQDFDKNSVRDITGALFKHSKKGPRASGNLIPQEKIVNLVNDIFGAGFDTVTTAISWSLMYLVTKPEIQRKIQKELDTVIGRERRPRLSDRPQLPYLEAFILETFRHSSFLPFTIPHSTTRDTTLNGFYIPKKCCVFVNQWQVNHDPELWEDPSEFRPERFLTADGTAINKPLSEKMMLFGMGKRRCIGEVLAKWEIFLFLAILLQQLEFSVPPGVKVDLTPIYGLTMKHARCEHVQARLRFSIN

Activity calls are given as the source filed them.

Chain of Glucose-6-phosphate 1-dehydrogenase (P11413 whole entry): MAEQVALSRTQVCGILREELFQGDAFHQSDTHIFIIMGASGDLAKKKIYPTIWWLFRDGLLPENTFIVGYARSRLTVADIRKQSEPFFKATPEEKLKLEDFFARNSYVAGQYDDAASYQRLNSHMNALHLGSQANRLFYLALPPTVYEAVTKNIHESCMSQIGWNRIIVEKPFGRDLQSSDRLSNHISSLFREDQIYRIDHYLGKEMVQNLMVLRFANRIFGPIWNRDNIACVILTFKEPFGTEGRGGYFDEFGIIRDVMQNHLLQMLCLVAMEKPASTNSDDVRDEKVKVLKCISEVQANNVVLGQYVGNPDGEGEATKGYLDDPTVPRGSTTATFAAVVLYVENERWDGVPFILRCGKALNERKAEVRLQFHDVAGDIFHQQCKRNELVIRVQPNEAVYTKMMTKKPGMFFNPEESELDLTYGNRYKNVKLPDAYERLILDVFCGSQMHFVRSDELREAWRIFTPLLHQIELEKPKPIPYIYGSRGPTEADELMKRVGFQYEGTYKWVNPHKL
T1 sequence (P11940 whole entry): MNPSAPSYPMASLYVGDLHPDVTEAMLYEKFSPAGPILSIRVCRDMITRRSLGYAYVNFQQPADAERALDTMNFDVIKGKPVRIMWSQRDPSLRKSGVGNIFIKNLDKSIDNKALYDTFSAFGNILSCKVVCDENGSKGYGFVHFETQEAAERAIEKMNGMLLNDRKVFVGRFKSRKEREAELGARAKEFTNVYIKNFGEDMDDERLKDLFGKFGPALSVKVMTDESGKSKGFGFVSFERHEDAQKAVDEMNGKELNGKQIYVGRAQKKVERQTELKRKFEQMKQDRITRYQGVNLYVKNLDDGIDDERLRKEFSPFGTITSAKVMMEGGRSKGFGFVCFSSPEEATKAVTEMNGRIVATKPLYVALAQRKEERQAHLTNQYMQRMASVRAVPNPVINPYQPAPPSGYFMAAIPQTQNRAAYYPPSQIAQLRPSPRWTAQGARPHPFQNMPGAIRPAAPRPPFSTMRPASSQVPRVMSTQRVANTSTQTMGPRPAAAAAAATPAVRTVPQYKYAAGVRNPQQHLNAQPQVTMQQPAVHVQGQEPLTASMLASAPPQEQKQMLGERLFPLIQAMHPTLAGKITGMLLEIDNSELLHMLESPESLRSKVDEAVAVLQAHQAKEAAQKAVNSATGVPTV
Chain of Cytochrome P450 2D6 (P10635 whole entry): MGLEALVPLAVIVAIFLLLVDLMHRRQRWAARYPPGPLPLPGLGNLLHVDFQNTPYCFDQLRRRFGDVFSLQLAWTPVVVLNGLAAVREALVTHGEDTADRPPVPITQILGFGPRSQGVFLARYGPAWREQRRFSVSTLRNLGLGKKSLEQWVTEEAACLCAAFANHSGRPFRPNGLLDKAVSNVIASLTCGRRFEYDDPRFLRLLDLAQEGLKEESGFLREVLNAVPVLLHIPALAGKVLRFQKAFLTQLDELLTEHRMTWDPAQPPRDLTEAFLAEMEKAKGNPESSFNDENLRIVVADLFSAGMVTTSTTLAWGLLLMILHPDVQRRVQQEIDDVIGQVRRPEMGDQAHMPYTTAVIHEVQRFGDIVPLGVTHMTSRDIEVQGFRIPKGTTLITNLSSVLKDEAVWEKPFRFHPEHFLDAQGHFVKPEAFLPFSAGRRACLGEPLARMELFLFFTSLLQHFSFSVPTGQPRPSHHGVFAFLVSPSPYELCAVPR
Chain of Cytochrome P450 3A4 (P08684 whole entry): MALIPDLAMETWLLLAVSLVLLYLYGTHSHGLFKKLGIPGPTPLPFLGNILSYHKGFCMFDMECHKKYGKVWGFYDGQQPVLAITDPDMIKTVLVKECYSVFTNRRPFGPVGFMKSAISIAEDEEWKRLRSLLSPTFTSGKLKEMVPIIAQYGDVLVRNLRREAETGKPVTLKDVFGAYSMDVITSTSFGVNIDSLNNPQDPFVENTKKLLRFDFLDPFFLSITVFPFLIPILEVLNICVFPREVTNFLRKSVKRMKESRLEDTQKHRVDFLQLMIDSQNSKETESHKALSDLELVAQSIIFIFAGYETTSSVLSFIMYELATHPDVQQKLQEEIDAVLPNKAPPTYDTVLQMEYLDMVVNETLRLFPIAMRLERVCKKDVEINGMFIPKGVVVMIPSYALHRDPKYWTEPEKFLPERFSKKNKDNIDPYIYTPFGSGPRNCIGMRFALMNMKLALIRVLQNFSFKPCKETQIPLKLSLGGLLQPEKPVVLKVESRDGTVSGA
Chain of Cytochrome P450 2C9 (P11712 whole entry): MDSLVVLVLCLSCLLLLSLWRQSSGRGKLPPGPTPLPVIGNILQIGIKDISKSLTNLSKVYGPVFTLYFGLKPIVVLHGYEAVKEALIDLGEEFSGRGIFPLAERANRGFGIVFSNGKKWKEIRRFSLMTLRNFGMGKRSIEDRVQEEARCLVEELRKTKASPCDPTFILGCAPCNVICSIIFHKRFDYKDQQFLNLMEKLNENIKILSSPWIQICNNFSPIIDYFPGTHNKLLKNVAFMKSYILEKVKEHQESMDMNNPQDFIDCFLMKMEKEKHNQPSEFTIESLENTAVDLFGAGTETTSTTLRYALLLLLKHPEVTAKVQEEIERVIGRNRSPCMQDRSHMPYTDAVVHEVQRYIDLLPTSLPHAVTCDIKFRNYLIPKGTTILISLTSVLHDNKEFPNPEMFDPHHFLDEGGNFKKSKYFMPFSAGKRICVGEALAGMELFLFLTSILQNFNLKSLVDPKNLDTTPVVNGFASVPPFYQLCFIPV
Chain of Luciferin 4-monooxygenase (P08659 whole entry): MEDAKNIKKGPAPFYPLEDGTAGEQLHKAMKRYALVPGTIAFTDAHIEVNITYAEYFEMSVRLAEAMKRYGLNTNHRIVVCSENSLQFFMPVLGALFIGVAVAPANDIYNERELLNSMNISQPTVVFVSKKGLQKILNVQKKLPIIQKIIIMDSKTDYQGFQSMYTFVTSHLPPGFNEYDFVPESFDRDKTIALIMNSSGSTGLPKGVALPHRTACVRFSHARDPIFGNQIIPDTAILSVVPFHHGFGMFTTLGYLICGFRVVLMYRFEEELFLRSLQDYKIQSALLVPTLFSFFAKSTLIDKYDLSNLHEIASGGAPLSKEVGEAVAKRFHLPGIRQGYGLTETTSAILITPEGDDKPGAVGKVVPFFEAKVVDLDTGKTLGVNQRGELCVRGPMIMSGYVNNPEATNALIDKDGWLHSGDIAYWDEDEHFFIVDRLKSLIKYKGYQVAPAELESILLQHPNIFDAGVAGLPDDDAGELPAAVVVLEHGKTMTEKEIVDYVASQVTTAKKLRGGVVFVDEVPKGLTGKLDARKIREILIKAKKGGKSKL

As a reminder, the AC50 is the concentration giving half of the maximal activity seen. As for `COc1ccc(C#Cc2ccc([C@H]3[C@@H](CO)N4CCCCN(C(=O)Nc5ccc(F)cc5)C[C@H]34)cc2)cc1`, the concentration at half-maximal activity (AC50) in data set [1] is 13.9 µM (active).
With `Cc1ccc(N=C(S)C2=C(O)c3sccc3N(C)S2(=O)=O)cc1`, the IC50 in data set [2] and in data set [3] was > 66 µM (inactive) in each case. The AC50 in data set [4] was > 100 µM (inactive).
As for `O=C(CCC(=O)OCC(=O)c1ccc([N+](=O)[O-])cc1)Nc1ccccc1Cl`, the IC50 in data set [5] is > 80 µM (inactive).
Take `CCOC(=O)c1ccc(-n2c(N)c(C(=O)NCC3CCCO3)sc2=S)cc1` (stereo not drawn): in [5], the IC50 is > 80 µM (inactive).
Turning to `C=CCc1ccccc1OCC(=O)N/N=C/c1ccccc1OCC`, the IC50 in data set [5] is > 80 µM (inactive).
On the same count and under the same terms, for `CC1(OC(=O)C2CCCC2)C(=O)C=C2C=C(c3ccsc3)N(Cc3ccc4c(c3)OCO4)C=C2C1=O` (stereo not drawn) the value was > 80 µM (inactive).
The term EC50 denotes the concentration that produces a half-maximal response. With `O=C(N/N=C(\Cc1ncc[nH]1)c1ccccc1)c1ccccc1`, the EC50 was > 350 µM (not active) in “cells [6]”; 12.7 µM (active) in data set [7]; > 350 µM (not active) in the data set “cells [8]”; > 120 µM (not active) in [9]; > 120 µM (not active) in [10].
`C/C(=N\NC(=O)Cc1ccc(Br)cc1)c1cccnc1`: the EC50 in “cells [6]” is 36.3 µM (active); in “cells [8]”, > 350 µM (not active).
Turning to `O=C(O)CCC(=O)Nc1ccc(C(=O)OCC(=O)c2ccc(Cl)cc2Cl)cc1`, the AC50 in data set [4] is > 100 µM (inactive).
One may read the CC50 as the concentration at which the toxic effect on the cells reaches its halfway point. Take `O=C(Nc1ccc(S(=O)(=O)N2CCOCC2)cc1)c1ccc([N+](=O)[O-])s1`: the CC50 in [11] is 23.2 µM (active). In addition, the AC50 in the data set on INS1 was 7.03 µM (active). The EC50 in [12] is 42.8 µM (active); in data set [14], 394 nM (active). The IC50 in the data set “cells [13]” is 700 nM (active).
Consider `CCN(CC)S(=O)(=O)c1cc(C(=O)OCC(=O)Nc2cccc(Br)c2)ccc1F`, for which, in [4], the AC50 was 6.81 µM (active).
Consider `Cc1cccc(N2CCN(c3ccc(N4C(=O)CCCC4=O)cc3[N+](=O)[O-])CC2C)c1` (stereo not drawn), for which the 50% effective concentration (EC50) in “cells [6]” and in the data set “cells [8]” was > 350 µM (not active) throughout.
As for `COc1ccccc1NC(c1cccnc1)c1ccc2cccnc2c1O` (stereo not drawn), the EC50 is > 38 µM (not active) in data set [15], > 350 µM (not active) in “cells [6]”, > 160 µM (inconclusive) in data set [16] and 116 µM (active) in the data set “cells [8]”.
For the molecule `COc1ccc(-c2cc(-c3ccccc3)no2)cc1`, the EC50 is 10.3 µM (active) in [17] and 895 nM (active) in [20]. Further, the AC50 in data set [18] was 5.01 µM (active); in [19], 45.1 µM (active); in data set [21], > 52 µM (inactive); in [22] it was 3.84 µM (active).
With `Cc1cccc(-n2nnc(C(=O)NC3CCCc4ccccc43)c2N)c1` (stereo not drawn), in data set [23], the IC50 is reported as 7.05 µM (not active). Moreover, the AC50 entry on Cytochrome P450 2C9 is “inconclusive”; at Cytochrome P450 3A4 it was 1.12 µM (inconclusive); at Cytochrome P450 2D6, 7.94 µM (inconclusive); on Cytochrome P450 1A2 it was 15.8 µM (inconclusive).
For `Cc1cccc(-c2ccc([C@H]3[C@@H](CO)N4CCCCN(C(=O)c5cccnc5)C[C@@H]34)cc2)c1`, the concentration at half-maximal activity (AC50) in [18] was 20.8 µM (active); in data set [19], 38.4 µM (active); in data set [21], > 52 µM (inactive); in data set [22], 23.5 µM (active).
